Assay results reported in publication PMC3640759 (Molecular and biochemical parasitology, 2013).
Where two headings read alike, the source gives them in different places. Values belong to the compound of their own block, whether it stands above or below them.

Experiments:
[1] = system: P. falciparum 3D7 strain stage III–V gametocytes; assay: alamarBlue gametocyte viability assay, 1,536-well plate format; assay type: cell-based, Plasmodium falciparum
[2] = system: P. falciparum gametocytes; details: read-out: IC50 reported in 96-well plate format; cited from earlier work
[3] = cytotoxicity assay against SH-SY5Y neuroblastoma cells; details: human
in vitro = details: human
[4] = system: SH-SY5Y neuroblastoma cell line; assay: cytotoxicity assay against SH-SY5Y neuroblastoma cells; details: SH-SY5Y cells; lowest compound concentration 0.37 μM
[5] = Plasmodium falciparum, 3D7, 72 h, read-out: IC50 (gametocyte assay)

SMILES: CC[C@H](C)[C@H](NC(=O)[C@H]([C@@H](C)CC)N(C)C(C)=O)C(=O)N[C@H](C(=O)N[C@@H](CC(C)C)C(=O)[C@@]1(C)CO1)[C@@H](C)O [epoxomicin]
IC50 ([1]; seeding density 10 k gametocytes/well, 1,536-well plate): 0.0013 µM
IC50 ([1]; seeding density 20 k gametocytes/well, 1,536-well plate): 0.0018 µM
IC50 ([1]; seeding density 27.5 k gametocytes/well, 1,536-well plate): 0.0021 µM
IC50 [2]: 0.00216 µM

IC50 [1, 5]: 2.19 µM
SMILES: c1cnc2c(c1)ccc1cccnc12 [Phenanthroline, 1,10-phenanthroline]
IC50 ([3]; SH-SY5Y neuroblastoma cells): 5.45 µM

IC50 (in vitro): 9.48 µM
SMILES: Clc1ccccc1C(c1ccccc1)(c1ccccc1)n1ccnc1 [Clotrimazole]

IC50 [1, 5]: 0.25 µM
IC50 (in vitro): 13.4 µM
SMILES: CCN(CC)C(=S)SSC(=S)N(CC)CC [Antabuse]

SMILES: CNc1ccc2oc(C[C@H]3O[C@@]4(CC[C@H]3C)O[C@H]([C@H](C)C(=O)c3ccc[nH]3)[C@H](C)C[C@H]4C)nc2c1C(=O)O [Calcimycin]
IC50 [1, 5]: 1.96 µM
IC50 [3]: 1.37 µM

IC50 [1, 5]: 1.17 µM
SMILES: Cc1cc(NC2CCCCC2)nc(-n2nc(C)cc2C)n1 [CyPPA, Cyclohexyl-[2-(3,5-dimethyl-pyrazol-1-yl)-6-methyl-pyrimidin-4-yl]-amine]
IC50 ([3]; SH-SY5Y neuroblastoma cells): 9.16 µM

SMILES: c1ccc2c(c1)[I+]c1ccccc1-2 [Dibenziodolium]
cytotoxicity at lowest compound concentration tested [4]: completely cytotoxic
